In ChEMBL document CHEMBL3886760, “Cyclic amine substituted heterocyclic CETP inhibitors” (2016) one finds IC50 data, which are given here for one compound.

Each structure is given as a SMILES string.

Broadly, the IC50 is the concentration needed to halve the response being measured.

The test has as its target T1, Cholesteryl ester transfer protein (Homo sapiens, UniProt P11597).
T1 sequence (P11597 whole entry): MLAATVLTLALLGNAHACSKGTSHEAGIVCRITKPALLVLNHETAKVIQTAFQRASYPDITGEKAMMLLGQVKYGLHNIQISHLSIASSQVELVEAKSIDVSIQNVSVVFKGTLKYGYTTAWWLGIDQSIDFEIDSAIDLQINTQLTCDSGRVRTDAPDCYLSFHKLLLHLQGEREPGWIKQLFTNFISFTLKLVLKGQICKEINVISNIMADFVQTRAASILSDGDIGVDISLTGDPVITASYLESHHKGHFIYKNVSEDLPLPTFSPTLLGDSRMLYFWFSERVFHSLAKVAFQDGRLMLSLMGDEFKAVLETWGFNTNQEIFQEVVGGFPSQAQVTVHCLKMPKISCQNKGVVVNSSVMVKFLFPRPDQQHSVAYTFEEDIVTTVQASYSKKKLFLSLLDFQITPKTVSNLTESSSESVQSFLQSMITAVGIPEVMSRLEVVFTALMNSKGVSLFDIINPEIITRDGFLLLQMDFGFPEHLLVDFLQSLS
Nature of the test: Scintillation Proximity Assay (SPA): First, low density lipoprotein (LDL) (Meridian) was biotinylated by incubating LDL with biotin for 1 hour on ice, after which it was dialyzed to remove free biotin. Then compounds at varying concentrations were incubated with 15 nM CETP (reagent production group, In Vitro Pharmacology, MRL Rahway) and 50 ug/ml of the biotinylated LDL in 50 mM HEPES, 150 mM NaCl, pH 7.4, for 1 hour at 37° C. The reaction was started by adding 3H-cholesterol ester high density lipoprotein (HDL) (American Radiochemicals Corp) at a concentration of 0.6 nM. The reaction proceeded for 2 hours at 37° C., after which time it was quenched by the addition of 12% acetic acid. PVT streptavadin-coated scintillation proximity beads, which had been brought to room temperature, were then added at a concentration of 4 mg/ml. The assay was then mixed and counted after one half hour in a Microbeta plate reader.

Take `COc1ncc(Cl)cc1-c1cnc(N2CC(F)C2)nc1CN1C(=O)O[C@H](c2cc(C(F)(F)F)cc(C(F)(F)F)c2)[C@@H]1C`: the IC50 was 38 nM.
